Data reported in ChEMBL document CHEMBL3046389, “Synthesis and biological evaluation of novel hydroquinone dimethyl ethers as potential anticancer and antimicrobial agents” (2013).
In brackets after ≈: the same amount, converted by molar mass.

Experiments:
Format in all cases: functional
[1] = test system: Candida albicans; assay: Antimicrobial activity against Candida albicans DSM 70014 after 48 hr by two-fold serial broth dilution method; conditions: DSM 70014, 48 h
[2] = test system: Pseudomonas aeruginosa; assay: Antimicrobial activity against Pseudomonas aeruginosa ATCC 10145 after 48 hr by two-fold serial broth dilution method; conditions: ATCC 10145, 48 h
[3] = test system: Staphylococcus aureus; assay: Antimicrobial activity against Staphylococcus aureus DSM 1104 after 48 hr by two-fold serial broth dilution method; conditions: DSM 1104, 48 h
[4] = test system: Escherichia coli; assay: Antimicrobial activity against Escherichia coli ATCC 11775 after 48 hr by two-fold serial broth dilution method; conditions: ATCC 11775, 48 h
[5] = test system: Bacillus subtilis; assay: Antimicrobial activity against Bacillus subtilis ATCC 6633 after 48 hr by two-fold serial broth dilution method; conditions: ATCC 6633, 48 h

SMILES | MIC [1] [µg/mL] | MIC [2] [µg/mL] | MIC [3] [µg/mL] | MIC [4] [µg/mL] | MIC [5] [µg/mL] | MFC [1] [µg/mL] | MBC [2] [µg/mL] | MBC [3] [µg/mL] | MBC [4] [µg/mL] | MBC [5] [µg/mL]
CC1(C)S[C@@H]2[C@H](NC(=O)[C@H](N)c3ccccc3)C(=O)N2[C@H]1C(=O)O.O.O.O [AMPICILLIN TRIHYDRATE] | – | 50 | 5 | 10 | 12.5 | – | – | – | – | –
COc1ccc(OC)c(/C=C/C2=NN(C(C)=O)C(c3ccc([N+](=O)[O-])cc3)O2)c1 (stereo not given) | 100 (≈ 252 µM) | 50 (≈ 126 µM) | 100 (≈ 252 µM) | 50 (≈ 126 µM) | 50 (≈ 126 µM) | 100 (≈ 252 µM) | 100 (≈ 252 µM) | 100 (≈ 252 µM) | 100 (≈ 252 µM) | 100 (≈ 252 µM)

Second part, led by results:

MIC [1] [µg/mL] | MIC [2] [µg/mL] | MIC [3] [µg/mL] | MIC [4] [µg/mL] | MIC [5] [µg/mL] | SMILES | MFC [1] [µg/mL] | MBC [2] [µg/mL] | MBC [3] [µg/mL] | MBC [4] [µg/mL] | MBC [5] [µg/mL]
50 (≈ 142 µM) | 100 (≈ 284 µM) | 25 (≈ 70.9 µM) | 100 (≈ 284 µM) | 50 (≈ 142 µM) | COc1ccc(OC)c(/C=C/C2=NN(C(C)=O)C(c3ccccc3)O2)c1 (stereo not given) | 50 (≈ 142 µM) | 100 (≈ 284 µM) | 50 (≈ 142 µM) | 100 (≈ 284 µM) | 50 (≈ 142 µM)
50 (≈ 147 µM) | 100 (≈ 295 µM) | 50 (≈ 147 µM) | 50 (≈ 147 µM) | 100 (≈ 295 µM) | COc1ccc(OC)c(/C=C/c2nnc(Nc3ccccc3)s2)c1 | 50 (≈ 147 µM) | 100 (≈ 295 µM) | 50 (≈ 147 µM) | 50 (≈ 147 µM) | 100 (≈ 295 µM)
5 (≈ 14.5 µM) | – | – | – | – | Clc1ccccc1C(c1ccccc1)(c1ccccc1)n1ccnc1 [CLOTRIMAZOLE] | – | – | – | – | –
